{"source": "BindingDB's records for doi:10.1021/acs.jmedchem.6b01442", "about": "(Tsinghua University, 2017)", "assay": "Inhibition of HBV capsid assembly infected in human HepG2(2.2.15) cells assessed as inhibition of intracellular viral DNA level after 8 days by agarose gel electrophoresis method"}
{"smiles": "CC(=O)Nc1ccc(-c2cc(C)c(=O)n(Cc3ccc(Cl)cc3)n2)cc1", "values": [{"measurement": "IC50", "value": 1900, "unit": "nM"}]}
